Assay results from paper PMC4198483 (Cancer cell, 2014).
Positions count from the first letter of the chain named.

Columns and labels:
[1] = target: T1, TIPE3 (TNFAIP8L3) (Mus musculus, UniProt Q3TBL6); assay: vesicle sedimentation assay; format: binding; settings: 20 µM protein; 1000 µM vesicles of 10% lipid + 90% PC
T1 sequence (Q3TBL6 1-204): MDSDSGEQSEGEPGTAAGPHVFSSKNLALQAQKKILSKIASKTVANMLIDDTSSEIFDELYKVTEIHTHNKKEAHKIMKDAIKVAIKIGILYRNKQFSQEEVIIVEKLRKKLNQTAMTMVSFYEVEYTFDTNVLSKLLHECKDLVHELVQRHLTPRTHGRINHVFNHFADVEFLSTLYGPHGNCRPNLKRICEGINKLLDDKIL

[2] = target: T2, TIPE3 (TNFAIP8L3) (Mus musculus, UniProt Q3TBL6, K33Q/K34Q/K38Q/K42Q); assay: vesicle sedimentation assay; format: binding; settings: 20 µM protein; 1000 µM vesicles of 10% lipid + 90% PC
T2 sequence (Q3TBL6 1-204 K33Q/K34Q/K38Q/K42Q): T1 sequence (Q3TBL6 1-204) with K33Q, K34Q, K38Q, K42Q

| % protein bound to vesicles [1] [%] | % protein bound to vesicles [2] | Substance |
| --- | --- | --- |
| > 60 | ~ 30% | PtdIns(4,5)P2 |
| > 60 |  | PtdIns(3,4,5)P3 |
